Read-outs that look alike come from different tables or passages of the source.
How the values were obtained:
Assay type in all cases: in vivo
[1] = system: beet armyworm (Spodoptera exigua) larvae; assay: Beet armyworm mortality on artificial diet (LAPHEG); details: 168 h, read-out: LAPHEG: % mortality against beet armyworm on artificial diet
Description: (§1) The compounds identified in TABLE 2 were prepared using the procedures illustrated in the previous examples and these compounds were tested against beet armyworm, mosquito, fruit fly, and cotton aphid using protocols described after.
(§2) Compounds were evaluated on mosquito (Aedes aegypti) larvae, beet armyworm (Spodoptera exigua) larvae, fruit fly (Drosophila melanogaster) adults and cotton aphid (Aphis gossypi). Newly hatched mosquito larvae (about 50 larvae/well) in 96-well microtiter plates in 230 ul of water containing powdered liver/yeast extract (1 gr/100 ml) were treated with 20 ppm solution of the test compound. Following treatment the plates were covered with a lid and mortality was determined three days after treatment. Beet armyworm eggs (about 5 per well) were placed on artificial diet (in a 96-well microtiter plate) treated with a 4000 ppm solution of a test compound in combination with piperonyl butoxide (in approximate ratio of 1:4). After infestation, the plates were covered with a lid and mortality was determined seven days following treatment. Five-day old fruit fly adults (about 5/well) were placed in deep-well microtiter plates containing 250 ul/well of a 2% agar-10% sucrose mixture that had been treated with a 4000 ppm solution of a test compound. Following infestation, the plates were covered with a lid and mortality was determined three days after treatment. Treatments for the mosquito and armyworm were replicated six times each, that of the fruit fly three times each.

[2] = system: mosquito (Aedes aegypti) larvae; assay: Mosquito larvae mortality (AEDSAE); details: 72 h, read-out: AEDSAE: % mortality against mosquito larvae
Description: as §1, §2

[3] = system: fruit fly (Drosophila melanogaster) adults; assay: Adult fruit fly mortality on artificial diet (DROSME); details: 72 h, read-out: DROSME: % mortality against adult fruit fly on artificial diet
Description: as §1, §2

[4] = system: cotton aphid (Aphis gossypi); assay: Cotton aphid foliar spray test on squash (CA 200); details: 72 h, squash cotyledons, 3 days, Corrected % Control (Abbott), read-out: CA 200: % control against cotton aphid in foliar spray tests
Description: The compounds identified in TABLE 2 were prepared using the procedures illustrated in the previous examples and these compounds were tested against beet armyworm, mosquito, fruit fly, and cotton aphid using protocols described after. […]
Squash with fully expanded cotyledon leaves were trimmed to one cotyledon per plant and infested with cotton aphid (wingless adult and nymph) 1 day prior to chemical application.
Each plant is examined before chemical application to ensure proper infestation (ca. 30-70 aphids per plant). Compounds (3 mg) were dissolved in 3 mL of acetone:methanol (50:50) solvent, forming stock solutions of 1000 ppm. The stock solutions were then diluted with 0.025% Tween 20 (in H2O) to make […]. A hand-held Devilbiss sprayer was used to apply the spray solutions until runoff to both sides of the squash cotyledon leaves. Four plants (4 replications) were used for each concentration of each compound. Reference plants (solvent check) were sprayed with 0.025% Tween 20 only. Treated plants were held in a holding room for 3 days at approximately 23° C. and 40% RH before the number of live aphids on each plant was recorded. Insecticidal activity was measured by Corrected % Control using Abbott's correction formula and presented in TABLE 2: Corrected % Control=100*(X−Y)/X • where X=No. of live aphids on solvent check plants • Y=No. of live aphids on treated plants

[5] = 4000 μg/ml, with piperonyl butoxide (approx. 1:4), mortality seven days after treatment
[6] = 20 μg/ml, mortality three days after treatment
[7] = 4000 μg/ml, mortality three days after treatment

SMILES	mortality at 4000 µg/mL [1, 5] [%]	mortality at 20 µg/mL [2, 6] [%]	mortality at 4000 µg/mL [3, 7] [%]	pest or weed control at 200 ppm [4] [%]	mortality at 4000 µg/mL [1] [%]	mortality at 20 µg/mL [2] [%]	mortality at 4000 µg/mL [3] [%]
N#Cc1cccc(CN2CCN(CCc3ccccc3)CC2)c1 [Compound 17, 3-{[4-(2-phenylethyl)piperazin-1-yl]methyl}benzonitrile]	1 to 25	1 to 25	26 to 49	1 to 25	–	–	–
O=C(c1ccco1)N1CCN(Cc2ccccc2)CC1 [Compound 34]	1 to 25	1 to 25	1 to 25	–	–	–	–
O=C(Cc1ccc(Cl)cc1)N1CCN(Cc2ccccc2)CC1 [Compound 38]	–	–	–	50 to 100	1 to 25	1 to 25	1 to 25
O=C(c1ccc(Cl)cc1)N1CCN(Cc2ccccc2)CC1 [Compound 44]	1 to 25	1 to 25	1 to 25	1 to 25	–	–	–
O=C(c1coc2ccccc12)N1CCN(Cc2ccccc2)CC1 [Compound 50]	1 to 25	1 to 25	1 to 25	50 to 100	–	–	–
FC(F)(F)c1ccccc1CCN1CCN(Cc2cc3c(cc2Cl)OCO3)CC1 [Compound 86]	1 to 25	26 to 49	1 to 25	50 to 100	–	–	–
FC(F)(F)c1ccc(CN2CCN(CCc3ccccc3C(F)(F)F)CC2)o1 [Compound 87]	1 to 25	1 to 25	1 to 25	26 to 49	–	–	–
COC(=O)c1cccc(CN2CCN(CCc3ccccc3)CC2)c1 [Compound 90]	1 to 25	1 to 25	26 to 49	50 to 100	–	–	–
FC(F)(F)Oc1cccc(CN2CCN(CCc3ccccc3)CC2)c1 [Compound 91]	1 to 25	1 to 25	26 to 49	1 to 25	–	–	–
COc1ccc(CN2CCN(CCc3ccccc3C(F)(F)F)CC2)cc1Cl [Compound 95]	1 to 25	1 to 25	26 to 49	50 to 100	–	–	–
CC(C)(C)OC(=O)N1CCN(CCc2ccccc2C(F)(F)F)CC1 [Compound 96]	26 to 49	1 to 25	1 to 25	50 to 100	–	–	–
COc1cc(CN2CCN(CCc3ccccc3C(F)(F)F)CC2)c([N+](=O)[O-])cc1OC [Compound 99]	1 to 25	1 to 25	1 to 25	50 to 100	–	–	–
FC(F)(F)c1ccccc1CCN1CCN(CC2COc3ccccc3O2)CC1 (centres unmarked) [Compound 100]	1 to 25	1 to 25	26 to 49	50 to 100	–	–	–
FC(F)(F)c1ccccc1CCN1CCN(Cc2ccccc2Cl)CC1 [Compound 101]	1 to 25	1 to 25	1 to 25	50 to 100	–	–	–
Clc1cc2c(cc1CN1CCN(CCC3CCCCC3)CC1)OCO2 [Compound 102]	1 to 25	1 to 25	1 to 25	50 to 100	–	–	–
Clc1cc2c(cc1CN1CCN(CCOc3ccccc3)CC1)OCO2 [Compound 103]	1 to 25	1 to 25	1 to 25	50 to 100	–	–	–

SMILES	mortality at 4000 µg/mL [1, 5] [%]	mortality at 20 µg/mL [2, 6] [%]	mortality at 4000 µg/mL [3, 7] [%]	pest or weed control at 200 ppm [4] [%]	mortality at 4000 µg/mL [1] [%]	mortality at 20 µg/mL [2] [%]	mortality at 4000 µg/mL [3] [%]
Clc1cc2c(cc1CN1CCN(CCc3ccccc3)CC1)OCO2 [Compound 104]	1 to 25	1 to 25	50 to 100	50 to 100	–	–	–
CC(=O)c1ccccc1C(=O)N1CCN(CCc2ccccc2C(F)(F)F)CC1 [Compound 105]	1 to 25	1 to 25	1 to 25	50 to 100	–	–	–
FC(F)(F)c1ccccc1CCN1CCN(Cc2ccc3c(c2)OCO3)CC1 [Compound 107]	1 to 25	1 to 25	50 to 100	50 to 100	–	–	–
COc1ccc(CN2CCN(CCc3ccccc3C(F)(F)F)CC2)c(Cl)c1OC [Compound 108]	1 to 25	1 to 25	1 to 25	50 to 100	–	–	–
O=C(c1ccc(-c2ccccn2)s1)N1CCN(CCc2ccccc2C(F)(F)F)CC1 [Compound 126]	1 to 25	1 to 25	1 to 25	50 to 100	–	–	–
O=C(COc1ccccc1)N1CCN(C(=O)OCc2ccccc2)CC1 [Compound 139]	26 to 49	1 to 25	1 to 25	–	–	–	–
O=C(OCc1ccccc1)N1CCN(C(=O)c2cccs2)CC1 [Compound 146]	1 to 25	1 to 25	1 to 25	–	–	–	–
O=C(c1ccc2ccccc2n1)N1CCN(CCc2ccccc2C(F)(F)F)CC1 [Compound 156]	1 to 25	1 to 25	1 to 25	50 to 100	–	–	–
O=C(OCc1ccccc1)N1CCN(C(=O)c2ccc3ccccc3n2)CC1 [Compound 159]	1 to 25	1 to 25	1 to 25	–	–	–	–
Cc1nn(C)c2sc(C(=O)N3CCN(CCc4ccccc4C(F)(F)F)CC3)cc12 [Compound 160]	1 to 25	1 to 25	1 to 25	1 to 25	–	–	–
Cc1nn(C)c2sc(C(=O)N3CCN(C(C)c4ccccc4)CC3)cc12 (centres unmarked) [Compound 162]	1 to 25	1 to 25	26 to 49	–	–	–	–
O=C(OCc1ccccc1)N1CCN(Cc2ccc(Cl)nc2)CC1 [Compound 192]	1 to 25	1 to 25	1 to 25	–	–	–	–
COC(=O)c1cccc(CN2CCN(CCOc3ccccc3)CC2)c1 [Compound 303]	1 to 25	1 to 25	26 to 49	–	–	–	–
O=C(c1ccccc1)c1ccc(CN2CCN(C(=O)C3CC3)CC2)cc1 [Compound 321]	1 to 25	1 to 25	1 to 25	–	–	–	–
CC(CN1CCN(Cc2cc3c(cc2Cl)OCO3)CC1)c1ccccc1 (centres unmarked) [Compound 333]	1 to 25	1 to 25	50 to 100	50 to 100	–	–	–
